Where a name gives a salt, the structure may show the parent alone. Peptide text beside a SMILES is read from it. * marks the point of attachment. Cbz = O=C(OCc1ccccc1)*
How the values were obtained:
leukemia cells = conditions: cited from earlier work
geminin protein = assay: Geminin level by western blot of sonicated extracts; assay type: cell-based, human
Protocol: To study the consequence of silencing or inactivating c-Abl on geminin overexpressing cells, experiments were first undertaken to analyze what happens to geminin protein following c-Abl silencing or inactivation. […] Another Dox treated set of cells were transfected with c-Abl dominant negative construct (i.e. K209R, see Srinivasan and Plattner, 2006) during the last 48 h. Sonicated extracts were then prepared from all cultures and geminin level was measured using western blot analysis. […] Similar effects were also observed in cells endogenously overexpressing geminin.

[1] = tested on: induced Gem9 cells (geminin overexpressing HME cells); assay: Cell cycle progression, PI labeling and FACS; assay type: cell-based, human; conditions: Gem9 induced 72 h; for effect on cell cycle progression: then drug 24 h, vs DMSO, ZM447439 5 μM, Nocodazole 250 ng/ml, Taxol 10 μM
Protocol: (§1) Breast cancer cell lines were maintained in RPMI medium (Invitrogen, Carlsbad, Calif.) supplemented with 10% FBS and antibiotics. Maintenance of HME cells was performed as described previously. Cells were treated with 5 μM […] (Toronto Research Chemicals Inc., North York, ON), 100 ng/ml colcemid (Sigma, St. Louis, Mo.), 250 ng/ml Nocodazole (Sigma), 10 μM Taxol (Sigma). PI or FITC-conjugated anti-BrdU FACS analysis was performed as in [20]. Annexin-V was performed according to manufacturer's instructions (BD Biosciences, 556547, San Jose, Calif.).
(§2) To evaluate that in detail, HME (or Gem9−Dox) and induced (72 h) Gem9 cells were incubated with 5 μM of ZM447439 (a specific and potent inhibitor of AurB) for an additional 24 h. To measure the effect of ZM447439 on cell cycle progression aliquots from each culture were labeled with PI and analyzed by FACS.
(§3) To evaluate whether these effects were restricted to AurB inhibitors or could be seen with drugs that alter the integrity of the microtubules apparatus as well, HME and induced Gem9 cells were treated with DMSO (control), Nocodazole (a microtubules depolymerizing agent) or Taxol (a microtubules stabilizing agent) for another 24 h. […] However, both treatments also had modest effect on geminin overexpression cells (FIGS. 9C and 9D).
(§4) Low number of dying cells was detected in parental or Gem9 cells in the absence of Dox (FIGS. 13E/1 and 13E/5, 13F/1 and 13F/5 and 13G) or in HME cells in the presence of Dox (FIGS. 13E/2 and 13E/6, 13F/2 and 13F/6 and 13G). […] It was thought that degradation of geminin following c-Abl silencing or inactivation promoted cell death in geminin overexpressing and not normal cells, at least in part, because cells became addicted to high levels of geminin.

HME cells = assay: Cell cycle progression, PI labeling and FACS; assay type: cell-based, human; conditions: for effect on cell cycle progression: normal HME cells, 24 h, vs DMSO, ZM447439 5 μM, Nocodazole 250 ng/ml, Taxol 10 μM
Protocol: as §1, §2, §3, §4

[2] = tested on: uninduced Gem9 (Gem9-Dox, HME) cells; assay: Cell survival, PI/annexin V labeling and FACS; assay type: cell-based, human; conditions: 24 h, ZM447439 5 μM, Nocodazole 250 ng/ml
Protocol: as §1
(§5) To measure the effect on ZM447439 on cell survival, aliquots from each culture were labeled with PI/annexin V and analyzed by FACS. […] Indeed, in ZM447439 treated cells only 40±5% of the cells were PI^−/V^−, and 41±7% were PI^+/V^− and 20±6% were PI^−/V^++PI^+/V (FIG. 9B). […] Indeed, in ZM447439 treated cells 66±4% of the cells were PI^−/V^−, 24±3% were PI^+/V^− and 10±3% were PI^−/V^++PI^+/V^+ (FIG. 9E).

[3] = tested on: induced Gem9 (Gem9+Dox) cells; assay: Cell survival, PI/annexin V labeling and FACS; assay type: cell-based, human; conditions: Gem9 induced 72 h, then drug 24 h; ZM447439 5 μM, Nocodazole 250 ng/ml
Protocol: as §1, §5

uninduced Gem9 cells = assay: Metaphase chromosome spread, chromosome condensation; assay type: cell-based, human; conditions: 10 μM colcemid 1 h
Protocol: (§6) […] Cells were then trypsinized and washed and gently resuspended in PBS. 10 ml of 0.075M KCl was drop wise added and the cells were incubated at 37° C. (in a water bath) for 5-10 mins. Cells were then centrifuged at 900 rpm for 5 minutes and KCl was removed. 5 ml of freshly prepared fixative (3:1 Methanol/Acetic acid) was added drop wise to the cells and carefully mixed. Cells were centrifuged at 900 rpm for 5 minutes and the fixative was removed. This step was repeated 2 more times. Finally, all but 300 μl of the fixative media was removed and cells were dropped from approximately 18 inches onto an angled, humidified microscope slide. Slides were air-dry for at least 10 mins and cells were stained with propidium iodide (PI) or Giemsa.

[4] = tested on: induced Gem9 cells (geminin overexpressing); assay: as above; assay type: cell-based, human
Protocol: as §6

SCID mice = conditions: mouse, in vivo
Protocol: Geminin overexpressing cells were injected subcutaneously or orthotopically (in mammary gland) in SCID mice as described above. When tumors reached 0.5-0.75 cm^3 in volume the treatments were initiated. […] Mice were treated for 5 days and were rested for 2 days and tumor size was measured daily using calipers. At the end of the experiments tumors were dissected out, weighed and fixed in formalin, and cut at 4 μm for histological and immunohistochemical analysis.

p-(S10)-H3 = assay: FITC-anti-p-H3-(S10) labeling and FACS; assay type: cell-based, human; conditions: imatinib 10 μM 24 h, c-Abl silencing 72 h
From the text: Diminution of (S10)-H3 phosphorylation leads to chromosome condensation failure, lack of chromosome segregation and induction of aneuploidy (Giet et al., 2001). […] Aliquots of each culture were then fixed, labeled with FITC-anti-p-H3-(S10) specific antibody and analyzed by FACS.

Gem9/LT mammary tumors = assay: Treatment of orthotopic (mammary) geminin-driven tumors in SCID mice; assay type: in vivo, mouse
Protocol: (§7) All animal experiments were approved by the University of Hawaii IACUC committee and University of Mississippi Medical Center IACUC committee. Six- to eight-week-old anaesthetized immune-compromised athymic SCID (NOD.CB17-Prkdc^scid/J, Jackson Laboratory) mice were injected with human mammary epithelial (HME) cells (5×10^6) resuspended in 200 μl of HME medium/matrigel (1:1) using a 25-gauge needle. Tumor initiation was defined as the time when tumors were 3 mm in diameter. Mice were sacrificed when the tumors grew to greater than 1.5 cm in diameter or after 12 wks of monitoring. Tumor volume was calculated with the formula 4/3πr^3 (where r is the tumor radius). At the end of the experiments tumors were dissected out, weighed and then fixed in formalin, and subsequently cut at 4 μm for histological and immunohistochemical analysis.
(§8) Tumor formation was analyzed with IVIS luciferase machine (Xenogen, Alameda, Calif.) weekly and tumor size was measured every third day by calipers. To analyze tumor formation using the in vivo system, mice were intraperitoneally injected using a 30G needle with 100 μl of D-luciferin solution (Xenogen) prepared at 15 mg/mL in PBS. […]
(§9) Geminin overexpressing cells were injected subcutaneously or orthotopically (in mammary gland) in SCID mice as described above. […] Mice were treated for 5 days and were rested for 2 days and tumor size was measured daily using calipers. […]

[5] = tested on: Gem9/LT subcutaneous tumors; assay: Treatment of subcutaneous geminin-driven tumors in SCID mice; assay type: in vivo, mouse; conditions: imatinib 50 mg/kg/day, day 12
Protocol: as §7, §8, §9

parental HME cells = assay: Dying cells under light microscope and TUNEL; assay type: cell-based, human; conditions: imatinib 10 μM last 48 h, c-Abl siRNA 96 h
From the text: (§10) The Fluorescein FragEL™ DNA Fragmentation Detection kit (Calbiochem) was used according to the supplier's protocol.
as §4

induced Gem9 cells [6] = assay: Dying cells under light microscope and TUNEL; assay type: cell-based, human; conditions: Gem9 induced 96 h; imatinib 10 μM last 48 h, c-Abl silencing 96 h
From the text: as §10, §4

induced Gem9 cells [7] = assay: PI / FITC-anti-BrdU FACS, tetraploid/aneuploid cells; assay type: cell-based, human; conditions: Gem9 induced 72 h (approximately 35% without treatment); imatinib 10 μM last 24 h, c-Abl silencing 72 h
Protocol: BrdU (20 μM) was added to all cultures during the last 24 h and cultures were collected, labeled with PI and FITC-anti-BrdU antibody and analyzed by FACS.

CCN(CCCOc1ccc2c(Nc3cc(CC(=O)Nc4cccc(F)c4)n[nH]3)ncnc2c1)CCOP(=O)(O)O [AZD1152]
effect on DNA content of cells (leukemia cells): induce accumulation of cells with greater than 4N DNA content

CC(C)C[C@@H](C=O)NC(=O)[C@H](CC(C)C)NC(=O)[C@H](CC(C)C)NC(=O)OCc1ccccc1 [MG132] (Cbz-Leu-Leu-Leu-aldehyde)
geminin protein level (geminin protein; HME as well as induced Gem9 (72 h) cells, 10 μM MG132 together with 10 μM imatinib, last 24 h): an increase instead of a decrease

COC(=O)Nc1nc2ccc(C(=O)c3cccs3)cc2[nH]1 [Nocodazole]
effect on cell cycle progression [1]: modest effect
effect on cell cycle progression (HME cells): triggered accumulation of normal HME cells in G2/M phase, followed by tetraploidy and then cell death
alive cells (PI-/V-) [2]: 75±5%
apoptotic cells (PI-/V+ + PI+/V+) [2]: 20±5%
necrotic cells (PI+/V-) [2]: 6±4%
alive cells (PI-/V-) [3]: 78±6%
apoptotic cells (PI-/V+ + PI+/V+) [3]: 10±2%
necrotic cells (PI+/V-) [3]: 12±3%

CC(=O)O[C@H]1C(=O)[C@@]2(C)[C@H]([C@H](OC(=O)c3ccccc3)[C@]3(O)C[C@H](OC(=O)[C@H](O)[C@@H](NC(=O)c4ccccc4)c4ccccc4)C(C)=C1C3(C)C)[C@]1(OC(C)=O)CO[C@@H]1C[C@@H]2O [Taxol]
effect on cell cycle progression [1]: modest effect
effect on cell cycle progression (HME cells): triggered accumulation of normal HME cells in G2/M phase, followed by tetraploidy and then cell death

COc1cc2c(Nc3ccc(NC(=O)c4ccccc4)cc3)ncnc2cc1OCCCN1CCOCC1 [ZM447439]
effect on cell cycle progression [1]: little effect
effect on cell cycle progression (HME cells): triggered accumulation of normal HME cells in G2/M phase followed by tetraploidy and then cell death
alive cells (PI-/V-) [2]: 40±5%
apoptotic cells (PI-/V+ + PI+/V+) [2]: 20±6%
necrotic cells (PI+/V-) [2]: 41±7%
alive cells (PI-/V-) [3]: 66±4%
apoptotic cells (PI-/V+ + PI+/V+) [3]: 10±3%
necrotic cells (PI+/V-) [3]: 24±3%

CN[C@H]1CCc2cc(OC)c(OC)c(OC)c2-c2ccc(OC)c(=O)cc21 [colcemid]
chromosome condensation (uninduced Gem9 cells): induced condensation
chromosome condensation ([4]; Gem9 with Dox 7 days, 10 μM colcemid 1 h): failed to condense the chromosomes

COc1cccc2c1C(=O)c1c(O)c3c(c(O)c1C2=O)C[C@@](O)(C(=O)CO)C[C@@H]3O[C@H]1C[C@H](N)[C@H](O)[C@H](C)O1 [doxorubicin]
toxicity to the mice (SCID mice): adverse side effects including death

Cc1ccc(NC(=O)c2ccc(CN3CCN(C)CC3)cc2)cc1Nc1nccc(-c2cccnc2)n1 [imatinib, imatinib mesylate]
endogenous geminin protein level (geminin protein; HME cells, Dox 72 h, imatinib 10 μM last 24 h, c-Abl silencing 72 h): Significant reduction
geminin protein level (geminin protein; MCF7 (ER+) breast cancer cells, imatinib 10 μM or c-Abl silencing): significantly reduced the level of geminin protein
geminin protein level (geminin protein; MDAMB231 (ER-) breast cancer cells, imatinib 10 μM or c-Abl silencing): significantly reduced the level of geminin protein
overexpressed geminin protein level (geminin protein; induced Gem9 cells, Dox 72 h, imatinib 10 μM last 24 h, c-Abl silencing 72 h): Significant reduction
chromosome condensation ([4]; Gem9 with Dox 7 days plus colcemid, imatinib 10 μM last 24 h, c-Abl silencing last 72 h): restored chromosome condensation
p-(S10)-H3-positive cells (p-(S10)-H3; induced Gem9 cells (approximately 2% without treatment)): approximately 13%
p-(S10)-H3-positive cells (p-(S10)-H3; parental HME cells): reduced the percentage of p(S10)-H3-positive cells
mammary tumor size compared with no treatment (Gem9/LT mammary tumors; imatinib 50 mg/kg/day): 5-10 fold
killing of geminin-driven tumors (tumor size) (Gem9/LT mammary tumors; start at 0.5 to 0.7 cm^3, imatinib 50 mg/kg/day, doxorubicin 5 mg/kg/day, 14 days): as effective in killing geminin-driven tumors as doxorubicin
subcutaneous tumors after treatment [5]: barely detectable
number of dying cells (light microscope, TUNEL+) (parental HME cells): Low level of dying cells
number of dying cells (light microscope, TUNEL+) (induced Gem9 cells [6]): high number of dying cells
effect on cell cycle (PI FACS), sub-G1 and >4N cells ([1]; imatinib 10 μM last 24 h, c-Abl silencing 72 h): induced significant increase in sub-G1 and reduced the level of >4N cells
effect on cell cycle (PI FACS) (HME cells; HME cells, imatinib 10 μM last 24 h, c-Abl silencing 72 h): induced G1-arrest
cells with greater than 4N DNA content (tetraploid/aneuploid) (induced Gem9 cells [7]): approximately 6%
